Read-outs that look alike come from different tables or passages of the source.

We go through 16 molecules from paper PMC4490227, “Identification of Glycyrrhiza as the rikkunshito constituent with the highest antagonistic potential on heterologously expressed 5-HT3A receptors due to the action of flavonoids” (Frontiers in Pharmacology, 2015).

The assay concerns the target T1, human 5-HT3A receptors (Homo sapiens, UniProt P46098).
T1 sequence (P46098 24-478): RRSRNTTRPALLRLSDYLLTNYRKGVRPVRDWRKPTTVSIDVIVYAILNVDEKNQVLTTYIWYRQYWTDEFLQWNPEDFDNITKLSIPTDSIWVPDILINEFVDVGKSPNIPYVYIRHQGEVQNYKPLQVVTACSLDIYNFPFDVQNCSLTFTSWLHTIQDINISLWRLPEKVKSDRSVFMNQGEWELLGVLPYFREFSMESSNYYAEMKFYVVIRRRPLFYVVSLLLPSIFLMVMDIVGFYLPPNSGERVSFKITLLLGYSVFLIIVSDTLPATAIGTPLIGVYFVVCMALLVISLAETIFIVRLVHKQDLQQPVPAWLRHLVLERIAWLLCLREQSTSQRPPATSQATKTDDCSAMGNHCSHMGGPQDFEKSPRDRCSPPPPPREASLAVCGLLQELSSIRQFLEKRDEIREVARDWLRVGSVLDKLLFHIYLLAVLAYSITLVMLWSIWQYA
The experiment in a line: Two-electrode voltage-clamp: modulation of 5-HT-induced currents at 5-HT3A receptors heterologously expressed in Xenopus laevis oocytes. The format is cell-based. Also noted: key to mode of antagonism: c, apparently competitive; nc, non-competitive. The following applies: for synergistic effects between different herbal 5-HT3A receptor antagonists: pairs: 6-gingerol and citronellol, hesperetin and 6-shogaol (Supplementary Figure 3); for IC50: read-out: IC50 of substances; for inhibition of the 5-HT3A receptor response by solvent: solvent 1.0 Vol.-%. Here is the method: The expression plasmid contains the cDNA coding for the 5-HT3A protein in pcDNA3 (Invitrogen) (Lobitz et al., [2001]). cRNAs were prepared using the AmpliCap T7 high-yield message marker kit (Epicenter, Madison, WI, USA), following the manufacturer's protocol. Xenopus laevis oocytes were obtained as previously described (Sherkheli et al., [2010]) and injected with a total amount of 7–20 ng of the receptor-coding cRNA using an injection-setup from WPI (Nanoliter 2000, Micro4). The injected oocytes were stored in ND 96 (96.0 mM NaCl, 2.0 mM KCl, 1.8 mM CaCl2, 1.0 mM MgCl2, 5.0 mM HEPES, pH 7.2, 200 U/ml penicillin, and 200 μg/ml streptomycin) at 17°C. Measurements were performed one to 5 days after cRNA injection.
The electrophysiological recordings were performed using the two-electrode voltage-clamp technique as previously described (Saras et al., [2008]). All of the measurements were performed in normal frog ringer (NFR) [115 mM NaCl, 2.5 mM KCl, 1.8 mM CaCl2, 10 mM HEPES; pH 7.2 (NaOH/HCl)] containing niflumic acid (NA) (100 μM) to block the Ca^2+-induced currents mediated by the intrinsic chloride channel (TMEM16A) or under Ca^2+-free conditions [115 mM NaCl, 2.5 mM KCl, 1.8 mM MgCl2, 10 mM HEPES; pH 7.2 (NaOH/HCl)]. All of the substances were applied after preincubation (30 s). The currents were recorded at a holding potential of typically −60 mV using the Cell Works 6.1.1. software (NPI).
As a control, we tested the competitive antagonists ondansetron (1 nM) and d-tubocurarine (20 μM) (Hope et al., [1996]) and the non-competitive antagonist picrotoxin (50 μM) (Das and Dillon, [2005]). […] Nevertheless, a definitive differentiation between competitive, allosteric, and concentration-dependent antagonists must be performed using ligand binding assays.
The concentration-response data were fitted with the Hill equation with variable slope using SigmaPlot 8.0 (SPSS). Thereby, the calculation of the EC50 and IC50-values was done. The deviations are represented by the standard error of the mean (SEM). The datasets were tested for statistically significant differences through Student's t-test using Excel 2010 (Microsoft) (^*p < 0.05; ^**p < 0.005; ^***p < 0.0005). For multiple comparisons, the significance levels were corrected via Bonferroni-correction.

Setting [1] is: from comparison of inhibition at 2.5 and 30 μM 5-HT.
The mark [2] stands for this setting: inhibition at 2.5 vs 30 μM 5-HT.
The mark [3] stands for this setting: read-out: Mean inhibition ± SEM [%] 5-HT [2.5 μM].
The mark [4] stands for this setting: read-out: Mean inhibition ± SEM [%] 5-HT [30 μM].
The mark [5] stands for this setting: substance 1 mM (Figure 2A), read-out: 5-HT3A receptor inhibition by the substances (screening).

For `CCCCC[C@H](O)CC(=O)CCc1ccc(O)c(OC)c1` [6-gingerol], the “synergistic effects between different herbal 5-HT3A receptor antagonists” value is listed as “synergistic”.
On the same count and under the same terms, with `CCCCC/C=C/C(=O)CCc1ccc(O)c(OC)c1` [6-shogaol] the entry was “synergistic”.
What is called IC50 is the concentration that inhibits the measured activity by half. One may read the inhibition as the drop in the measured response relative to a control, in per cent. In the case of `O=C1C[C@@H](c2ccc(O)cc2)Oc2cc(O)ccc21` [(-)-liquiritigenin], the half-maximal inhibitory concentration (IC50) was found to be 210 ± 25 µM. Further, under setting [1], the mode of antagonism entry was “^*/nc”. For the same molecule, the “mode of antagonism” value under setting [2] is reported as “non-competitive”. In addition, under setting [3], the inhibition at 500 µM amounted to 84.5 ± 2.4%. Besides, the inhibition at 500 µM under setting [4] is 93.5 ± 0.5%. Also, the inhibition at 1000 µM under setting [5] worked out at 92.8 ± 2.2%.
Regarding `C=C1CCC[C@]2(C)C[C@]3(O)OC(=O)C(C)=C3C[C@@H]12` [Atractylenolide III, atractylenolide III], the IC50 was 1320 ± 145 µM. Further, under setting [1], the mode of antagonism result is on record as “ns/nc”. For the same molecule, under setting [3], the inhibition at 1000 µM is 55 ± 6.2%. In addition, under setting [4], the inhibition at 1000 µM came out at 57.8 ± 6%.
Take `COc1cc2c3cc1Oc1cc(ccc1O)C[C@@H]1c4c(cc(OC)c(O)c4Oc4ccc(cc4)C[C@@H]3N(C)CC2)CC[N+]1(C)C` [D-tubocurarine, d-tubocurarine, reference compound]: the mode of antagonism result under setting [1] is on record as “^**/c”. Also, the inhibition at 20 µM under setting [3] is 82 ± 3.5% and the inhibition at 20 µM under setting [4] came out at 45.9 ± 4.8%.
As to `C[S+](C)[O-]` [DMSO, dimethyl sulfoxide], the “inhibition of the 5-HT3A receptor response by solvent” value was 29.1 ± 4.7%.
As for `CCO` [Ethanol, ethanol], the “inhibition of the 5-HT3A receptor response by solvent” value turned out to be 14.1 ± 2.6%.
Take `CC1(C)C=Cc2c(ccc3c2OC[C@@H](c2ccc(O)cc2O)C3)O1` [Glabridin, glabridin]: the half-inhibitory concentration (IC50) is 28 ± 2.8 µM. The mode of antagonism result under setting [1] is recorded as “^***/c”. Besides, the “mode of antagonism” value under setting [2] is listed as “apparent competitive antagonism”. Besides, the inhibition at 100 µM under setting [3] came to 64.7 ± 2.1%. Moreover, the inhibition at 100 µM under setting [4] is 17.3 ± 2.3%. Under “substance 100 μM (Figure 2A), read-out: 5-HT3A receptor inhibition by the substances (screening)”, the inhibition at 100 µM was 62.8 ± 2.1%.
As to `CC1(C)[C@@H](O[C@H]2O[C@H](C(=O)O)[C@@H](O)[C@H](O)[C@H]2O[C@@H]2O[C@H](C(=O)O)[C@@H](O)[C@H](O)[C@H]2O)CC[C@]2(C)[C@H]3C(=O)C=C4[C@@H]5C[C@@](C)(C(=O)O)CC[C@]5(C)CC[C@@]4(C)[C@]3(C)CC[C@@H]12` [Glycyrrhizin, glycyrrhizin], the inhibition at 1000 µM under setting [5] was -3.1 ± 4.3%.
For `COc1ccc([C@@H]2CC(=O)c3c(O)cc(O)cc3O2)cc1O` [Hesperetin, hesperetin], the “synergistic effects between different herbal 5-HT3A receptor antagonists” value was “synergistic” and the IC50 was 218 ± 38 µM. Moreover, under setting [1], the mode of antagonism entry was “ns/nc”. Moreover, the inhibition at 1000 µM under setting [3] worked out at 77.3 ± 9%. For the same molecule, the inhibition at 1000 µM under setting [4] turned out to be 79.7 ± 6.1%. The “5-HT3A receptor inhibition by the substances (screening)” value (shortened to “5-HT3A receptor inhibition”) (substance 1 mM (Figure 2A)) is “antagonistic effects”. The inhibition at 1000 µM under setting [5] was found to be 66.6 ± 9.3%.
On to `COc1ccc([C@@H]2CC(=O)c3c(O)cc(O[C@@H]4O[C@H](CO[C@@H]5O[C@@H](C)[C@H](O)[C@@H](O)[C@H]5O)[C@@H](O)[C@H](O)[C@H]4O)cc3O2)cc1O` [Hesperidin, hesperidin], for which the “5-HT3A receptor inhibition” value (substance 1 mM (Figure 2A)) is reported as “no effect” and the “5-HT3A receptor inhibition” value (substance 1 mM (Figure 2A), listed as hesperidin) is −2.6 ± 5.3%.
Regarding `C=CC(C)(C)c1cc(/C=C/C(=O)c2ccc(O)cc2)c(OC)cc1O` [Licochalcone A, licochalcone A], the “direct activation of 5-HT3A receptors” value is “absence of the direct activation” and the IC50 is 14.4 ± 1.3 µM. Besides, the residual current remaining entry (5 μM 5-HT) is “approximately 40%”. Besides, under setting [1], the mode of antagonism entry was “^*/c”. Further, under setting [2], the “mode of antagonism” value is given as “apparent competitive antagonism”. In addition, the inhibition at 1000 µM under setting [3] turned out to be 76.1 ± 6.1%. Also, the inhibition at 1000 µM under setting [4] stood at 58.7 ± 2.6%. Further, under setting [5], the inhibition at 1000 µM came to 70.6 ± 3.1%.
For `Cc1nccn1CC1CCc2c(c3ccccc3n2C)C1=O` (centres unmarked) [Ondansetron, ondansetron, reference compound], under setting [1], the mode of antagonism result is on record as “^*/c”. Besides, the inhibition at 0.001 µM under setting [3] was found to be 82.4 ± 3.4% and the inhibition at 0.001 µM under setting [4] was found to be 57.9 ± 5.3%.
On to `CC(C)=CCCC(C)CCO` (centres unmarked) [citronellol], for which the “synergistic effects between different herbal 5-HT3A receptor antagonists” value was “synergistic”.
In the case of `C[C@@H]1O[C@@H](OC[C@H]2O[C@@H](Oc3c(-c4ccc(O)c(O)c4)oc4cc(O)cc(O)c4c3=O)[C@H](O)[C@@H](O)[C@@H]2O)[C@H](O)[C@H](O)[C@H]1O` [rutin], the “5-HT3A receptor inhibition” value (substance 1 mM (Figure 2A)) is listed as “antagonistic effects”. Also, the inhibition at 1000 µM under setting [5] worked out at 57 ± 6.1%.
As for picrotoxin [reference compound], the mode of antagonism entry under setting [1] is given as “ns/nc”. Further, the “Mean inhibition ± SEM [%] 5-HT [2.5 μM]” value (substance 50 μM, 5-HT 2.5 μM, 30 s preincubation) is listed as 72.5 ± 3.7%. In addition, the “Mean inhibition ± SEM [%] 5-HT [30 μM]” value (substance 50 μM, 5-HT 30 μM, 30 s preincubation) is 73.0 ± 2.8%.
